Read-outs that look alike come from different tables or passages of the source.
Target: ΔF508-CFTR (Homo sapiens (Human), UniProt P13569, DEL508-508)
Test: CFTR potentiator assays (membrane potential, IonWorks Quattro, Ussing chamber ion transport); patent does not say which gave the EC50
Assay type: cell-based
Settings: data measurements described above
From the text: CFTR activity can be quantified by measuring the transmembrane potential. The means for measuring the transmembrane potential in a biological system can employ a number of methods including electrophysiological and optical fluorescence-based membrane potential assays.
The optical membrane potential assay utilises a negatively charged potentiometric dye, such as the FLIPR membrane potential dye (FMP) (see Baxter D F, Kirk M, Garcia A F, Raimondi A, Holmqvist M H, Flint K K, Bojanic D, Distefano P S, Curtis R, Xie Y. ‘A novel membrane potential-sensitive fluorescent dye improves cell-based assays for ion channels.’ J Biomol Screen. 2002 February; 7(1):79-85) which when extracellular is bound to a quenching agent. Upon cellular depolarisation the negatively charged dye redistributes to the intracellular compartment, unbinding from the membrane impermeant quench agent, yielding an increase in fluorescence. This change in fluorescence is proportional to the change in transmembrane potential which can result from the activity of CFTR. The changes in fluorescence can be monitored in real time by an appropriately equipped fluorescence detector such as the FLIPR (fluorometric imaging plate reader) in 96 or 384-well microtitre plates.
Chinese hamster ovary (CHO) cells stably expressing the ΔF508-CFTR channel were used for membrane potential experiments. Cells were maintained at 37° C. in 5% v/v CO2 at 100% humidity in Modified Eagles medium (MEM) supplemented with 8% v/v foetal calf serum, 100 µg/ml methotrexate and 100 U/ml penicillin/streptomycin. Cells were grown in 225 cm^2 tissue culture flasks. For membrane potential assays cells were seeded into 96 well plates at 40,000 cells per well, allowed to adhere and then maintained at 26° C. for 48 h to facilitate channel insertion.
The membrane potential screening assay utilised a low chloride ion containing extracellular solution (˜5 mM) combined with a double addition protocol. The first addition was of buffer with or without test compound followed 5 minutes later by an addition of forskolin (1-20 μM)—this protocol favours maximum chloride efflux in response to ΔF508-CFTR activation. The ΔF508-CFTR mediated chloride ion efflux leads to a membrane depolarisation which is optically monitored by the FMP dye.
Low chloride extracellular (mM): 120 Na-gluconate, 1.2 CaCl2, 3.3 KH2PO4, 0.8 K2HPO4, 1.2 MgCl2, 10.0 D-glucose, 20.0 HEPES, pH 7.4 with NaOH FMP dye: made up as per manufacturers' instructions in low chloride extracellular solution detailed above, at 10× final concentration, and stored as 1 mL aliquots at −20° C.
CFTR activity can also be quantified electrophysiologically using the whole-cell configuration of the patch clamp technique (Hamill et al Pflugers Acrhive 1981). This assay directly measures the currents associated with chloride flow through CFTR channels whilst either maintaining or adjusting the transmembrane voltage. This assay can use either single glass micropipettes or parallel planar arrays to measure CFTR activity from native or recombinant cell systems. Currents measured using parallel planar arrays can be quantified using an appropriately equipped instrument such as the IonWorks Quattro (Molecular Devices) or the Qpatch (Sophion). The Quattro system can measure CFTR currents from either a single cell per recording well (HT configuration) or alternatively from a population of 64 cells per well (Population Patch Clamp PPC) (Finkel A, Wittel A, Yang N, Handran S, Hughes J, Costantin J. ‘Population patch clamp improves data consistency and success rates in the measurement of ionic currents.’ J Biomol Screen. 2006 August; 11(5):488-96).
Chinese hamster ovary (CHO) cells stably expressing the ΔF508-CFTR channel were used for IonWorks Quattro experiments. […]

[1] = Table 1, representative compounds, read-out: EC50

Chain of ΔF508-CFTR (P13569 other isoform, or with tags, fused parts or gaps del F508-F508): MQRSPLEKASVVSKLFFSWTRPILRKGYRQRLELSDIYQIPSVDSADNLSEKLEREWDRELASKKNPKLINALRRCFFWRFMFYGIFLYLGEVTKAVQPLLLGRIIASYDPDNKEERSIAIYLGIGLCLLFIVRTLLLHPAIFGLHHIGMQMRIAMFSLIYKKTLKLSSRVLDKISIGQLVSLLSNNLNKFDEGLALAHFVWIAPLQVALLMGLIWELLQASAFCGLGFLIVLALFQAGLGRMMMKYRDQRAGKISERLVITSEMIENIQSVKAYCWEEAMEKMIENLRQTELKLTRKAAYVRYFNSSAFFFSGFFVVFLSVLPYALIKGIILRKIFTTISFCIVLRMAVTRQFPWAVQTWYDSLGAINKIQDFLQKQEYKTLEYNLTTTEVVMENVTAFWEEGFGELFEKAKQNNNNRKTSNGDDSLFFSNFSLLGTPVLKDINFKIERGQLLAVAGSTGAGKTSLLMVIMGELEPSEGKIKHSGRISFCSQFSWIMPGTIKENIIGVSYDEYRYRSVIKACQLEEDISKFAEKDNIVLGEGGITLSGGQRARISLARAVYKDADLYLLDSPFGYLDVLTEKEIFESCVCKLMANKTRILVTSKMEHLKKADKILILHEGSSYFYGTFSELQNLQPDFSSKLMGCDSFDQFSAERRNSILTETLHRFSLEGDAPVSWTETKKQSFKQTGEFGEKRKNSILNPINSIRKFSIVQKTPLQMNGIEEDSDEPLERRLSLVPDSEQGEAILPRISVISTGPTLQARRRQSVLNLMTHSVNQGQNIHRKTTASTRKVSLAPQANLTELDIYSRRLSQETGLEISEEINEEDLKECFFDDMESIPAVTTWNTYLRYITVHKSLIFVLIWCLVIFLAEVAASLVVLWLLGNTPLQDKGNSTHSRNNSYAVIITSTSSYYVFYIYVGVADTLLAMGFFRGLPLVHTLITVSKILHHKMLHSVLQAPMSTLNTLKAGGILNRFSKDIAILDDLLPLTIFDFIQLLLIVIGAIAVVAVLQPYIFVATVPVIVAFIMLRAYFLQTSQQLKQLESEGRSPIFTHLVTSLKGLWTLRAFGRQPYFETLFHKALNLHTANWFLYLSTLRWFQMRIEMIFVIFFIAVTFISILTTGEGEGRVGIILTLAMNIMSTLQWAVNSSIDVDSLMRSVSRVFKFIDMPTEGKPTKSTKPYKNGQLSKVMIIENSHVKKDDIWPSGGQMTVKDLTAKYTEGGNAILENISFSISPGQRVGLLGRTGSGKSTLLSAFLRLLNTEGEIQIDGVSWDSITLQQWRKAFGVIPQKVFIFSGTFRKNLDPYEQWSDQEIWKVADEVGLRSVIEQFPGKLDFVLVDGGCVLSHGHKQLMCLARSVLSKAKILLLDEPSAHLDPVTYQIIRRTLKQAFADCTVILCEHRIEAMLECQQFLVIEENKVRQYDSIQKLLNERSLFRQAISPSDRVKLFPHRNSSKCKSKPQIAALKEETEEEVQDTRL

Row | EC50 [1] [µM] | EC50 (read-out: CFTR EC50) [µM] | Structure (SMILES)
1 | 0.09 |  | CC(O)(CNC(=O)c1nc(-c2ccc(Cl)cc2Cl)c(C(F)(F)F)cc1N)C(F)(F)F (single isomer, unassigned) [Example 9, 3-Amino-6-(2,4-dichloro-phenyl)-5-trifluoromethyl-pyridine-2-carboxylic acid (3,3,3-trifluoro-2-hydroxy-2-methyl-propyl)-amide]
2 | 0.112 |  | CC(O)(CNC(=O)c1nc(-c2ccc(Cl)cc2Cl)c(C(F)(F)F)cc1N)C(F)(F)F (single isomer, unassigned) [Example 10, 3-Amino-6-(2,4-dichloro-phenyl)-5-trifluoromethyl-pyridine-2-carboxylic acid (3,3,3-trifluoro-2-hydroxy-2-methyl-propyl)-amide]
3 |  | > 5 | Nc1cc(C(F)(F)F)c(Br)nc1C(=O)NCC(=O)O [2-(3-amino-6-bromo-5-(trifluoromethyl)picolinamido)acetic acid]
4 |  | > 5 | Cc1ccc(-c2nc(C(=O)NCC(=O)c3ccc(F)cc3)c(N)cc2C(F)(F)F)cc1C [3-amino-6-(3,4-dimethylphenyl)-N-(2-(4-fluorophenyl)-2-oxoethyl)-5-(trifluoromethyl)picolinamide]
5 |  | > 5 | CN(C)S(=O)(=O)c1cccc(-c2nc(C(=O)NCC(=O)c3ccc(F)cc3)c(N)cc2C(F)(F)F)c1 [3-amino-6-(3-(N, N-dimethylsulfamoyl)phenyl)-N-(2-(4-fluorophenyl)-2-oxoethyl)-5-(trifluoromethyl)picolinamide]
6 |  | > 5 | Cc1cc(C(N)=O)ccc1-c1nc(C(=O)NCC(=O)c2ccc(F)cc2)c(N)cc1C(F)(F)F [3-amino-6-(4-carbamoyl-2-methylphenyl)-N-(2-(4-fluorophenyl)-2-oxoethyl)-5-(trifluoromethyl)picolinamide]
7 |  | > 5 | CN(C)CCCOc1ccc(-c2nc(C(=O)NCC(=O)c3ccc(F)cc3)c(N)nc2C(F)(F)F)cn1 [3-amino-6-(6-(3-(dimethylamino)propoxy)pyridin-3-yl)-N-(2-(4-fluorophenyl)-2-oxoethyl)-5-(trifluoromethyl)pyrazine-2-carboxamide]
8 |  | > 5 | Nc1nc(C(F)(F)F)c(Br)nc1C(=O)NCCc1cccnc1 [3-amino-6-bromo-N-(2-(pyridin-3-yl)ethyl)-5-(trifluoromethyl)pyrazine-2-carboxamide]
9 |  | > 5 | Nc1nc(C(F)(F)F)c(Br)nc1C(=O)NCCc1ccncc1 [3-amino-6-bromo-N-(2-(pyridin-4-yl)ethyl)-5-(trifluoromethyl)pyrazine-2-carboxamide]
10 |  | > 5 | Cn1ccnc1CNC(=O)c1nc(Br)c(C(F)(F)F)nc1N [3-amino-6-bromo-N-((1-methyl-1H-imidazol-2-yl)methyl)-5-(trifluoromethyl)pyrazine-2-carboxamide]
11 |  | > 5 | Cn1cnc(CNC(=O)c2nc(Br)c(C(F)(F)F)nc2N)c1 [3-amino-6-bromo-N-((1-methyl-1H-imidazol-4-yl)methyl)-5-(trifluoromethyl)pyrazine-2-carboxamide]
12 |  | > 5 | Cn1cncc1CNC(=O)c1nc(Br)c(C(F)(F)F)nc1N [3-amino-6-bromo-N-((1-methyl-1H-imidazol-5-yl)methyl)-5-(trifluoromethyl)pyrazine-2-carboxamide]
13 |  | > 5 | Cn1ccc(CNC(=O)c2nc(Br)c(C(F)(F)F)nc2N)n1 [3-amino-6-bromo-N-((1-methyl-1H-pyrazol-3-yl)methyl)-5-(trifluoromethyl)pyrazine-2-carboxamide]
14 |  | > 5 | Cn1nccc1CNC(=O)c1nc(Br)c(C(F)(F)F)nc1N [3-amino-6-bromo-N-((1-methyl-1H-pyrazol-5-yl)methyl)-5-(trifluoromethyl)pyrazine-2-carboxamide]
15 |  | > 5 | Nc1nc(C(F)(F)F)c(Br)nc1C(=O)NCc1cn2ccccc2n1 [3-amino-6-bromo-N-(imidazo[1,2-a]pyridin-2-ylmethyl)-5-(trifluoromethyl)pyrazine-2-carboxamide]
16 |  | > 5 | Nc1nc(C(F)(F)F)c(Br)nc1C(=O)NCc1ncn2ccccc12 [3-amino-6-bromo-N-(imidazo[1,5-a]pyridin-1-ylmethyl)-5-(trifluoromethyl)pyrazine-2-carboxamide]
17 |  | > 5 | CC(C)CN(C)C(=O)c1nc(Br)c(C(F)(F)F)nc1N [3-amino-6-bromo-N-isobutyl-N-methyl-5-(trifluoromethyl)pyrazine-2-carboxamide]
18 |  | > 5 | CC(O)(CNC(=O)c1nc(O)c(C(F)(F)F)cc1N)C(F)(F)F (centres unmarked) [3-amino-6-hydroxy-N-(3,3,3-trifluoro-2-hydroxy-2-methylpropyl)-5-(trifluoromethyl)picolinamide]
19 |  | > 5 | Cn1ccc2ccc(-c3nc(C(=O)NCC(=O)c4ccc(F)cc4)c(N)cc3C(F)(F)F)cc21 [3-amino-N-(2-(4-fluorophenyl)-2-oxoethyl)-6-(1-methyl-1H-indol-6-yl)-5-(trifluoromethyl)picolinamide]
20 |  | > 5 | Nc1cc(C(F)(F)F)c(-c2ccc3c(c2)CCNC3=O)nc1C(=O)NCC(=O)c1ccc(F)cc1 [3-amino-N-(2-(4-fluorophenyl)-2-oxoethyl)-6-(1-oxo-1,2,3,4-tetrahydroisoquinolin-6-yl)-5-(trifluoromethyl)picolinamide]
21 |  | > 5 | CN(Cc1ccccc1)C(=O)c1nc(Br)c(C(F)(F)F)nc1N [3-amino-N-benzyl-6-bromo-N-methyl-5-(trifluoromethyl)pyrazine-2-carboxamide]
22 |  | > 5 | Cc1ccc(C)n1-c1cc(C(F)(F)F)c(On2nnc3cccnc32)nc1C(=O)NCC(C)(O)C(F)(F)F (centres unmarked) [6-((3H-[1,2,3]triazolo[4,5-b]pyridin-3-yl)oxy)-3-(2,5-dimethyl-1H-pyrrol-1-yl)-N-(3,3,3-trifluoro-2-hydroxy-2-methylpropyl)-5-(trifluoromethyl)picolinamide]
23 |  | > 5 | CNc1cc(C(F)(F)F)c(Br)nc1C(=O)NCC(C)(O)C(F)(F)F (centres unmarked) [6-bromo-3-(methylamino)-N-(3,3,3-trifluoro-2-hydroxy-2-methylpropyl)-5-(trifluoromethyl)picolinamide]
24 |  | > 5 | CN1CCN(C(=O)c2nc(Br)c(C(F)(F)F)nc2N)CC1c1ccccc1 (centres unmarked) [(3-amino-6-bromo-5-(trifluoromethyl)pyrazin-2-yl)(4-methyl-3-phenylpiperazin-1-yl)methanone]
25 |  | > 5 | CN1CCN(C(=O)c2nc(Br)c(C(F)(F)F)nc2N)CC1 [(3-amino-6-bromo-5-(trifluoromethyl)pyrazin-2-yl)(4-methylpiperazin-1-yl)methanone]
26 |  | > 5 | CN1CCN[C@H](CNC(=O)c2nc(Br)c(C(F)(F)F)nc2N)C1 [(R)-3-amino-6-bromo-N-((4-methylpiperazin-2-yl)methyl)-5-(trifluoromethyl)pyrazine-2-carboxamide]
27 |  | > 5 | CCN1CCC[C@H]1CNC(=O)c1nc(Br)c(C(F)(F)F)nc1N [(S)-3-amino-6-bromo-N-((1-ethylpyrrolidin-2-yl)methyl)-5-(trifluoromethyl)pyrazine-2-carboxamide]
28 | 0.05 |  | COc1nc(C(=O)NC[C@](C)(O)C(F)(F)F)c(N)cc1C(F)(F)F [Example 5, 3-Amino-6-methoxy-5-trifluoromethyl-pyridine-2-carboxylic acid ((S)-3,3,3-trifluoro-2-hydroxy-2-methyl-propyl)-amide]
29 | 0.426 |  | COc1nc(C(=O)NC[C@@](C)(O)C(F)(F)F)c(N)cc1C(F)(F)F [Example 6, 3-Amino-6-methoxy-5-trifluoromethyl-pyridine-2-carboxylic acid ((R)-3,3,3-trifluoro-2-hydroxy-2-methyl-propyl)-amide]

From patent US10117858B2, “Pyridine and pyrazine derivative for the treatment of CF” (Novartis AG, priority 2010, dated 2018)
